For this assay, the system named is L1210 leukemia ip in BDF1 mice, survival T/C. The experiment in a line: NCI In Vivo Anticancer Drug Screen. Data for tumor model L1210 Leukemia (intraperitoneal) in B6D2F1 (BDF1) mice. As to conditions: endpoint: mean survival time, higher = longer survival. Put shortly:
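Mice bearing the transplanted tumor received compound or vehicle. Survival of the treated group was divided by that of the vehicle-treated control group to give the ratio.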

The mark [1] stands for this setting: dose: 100.0 mg/kg/injection, schedule: Q04DX002 (ip), vehicle: Klucel (hydroxypropylcellulose) (HPC).
[2] abbreviates: dose: 200.0 mg/kg/injection, schedule: Q04DX002 (ip), vehicle: Klucel (hydroxypropylcellulose) (HPC).
The mark [3] stands for this setting: dose: 400.0 mg/kg/injection, schedule: Q04DX002 (ip), vehicle: Klucel (hydroxypropylcellulose) (HPC).
[4] abbreviates: dose: 50.0 mg/kg/injection, schedule: Q01DX001 (ip), vehicle: carboxymethylcellulose (CMC).
[5] abbreviates: dose: 50.0 mg/kg/injection, schedule: Q01DX001 (ip), vehicle: saline.
Setting [6] is: dose: 100.0 mg/kg/injection, schedule: Q01DX001 (ip), vehicle: carboxymethylcellulose (CMC).
[7] abbreviates: dose: 100.0 mg/kg/injection, schedule: Q01DX001 (ip), vehicle: saline.
Setting [8] is: dose: 200.0 mg/kg/injection, schedule: Q01DX001 (ip), vehicle: carboxymethylcellulose (CMC).
[9] abbreviates: dose: 200.0 mg/kg/injection, schedule: Q01DX001 (ip), vehicle: saline.
Where [10] appears, read: dose: 400.0 mg/kg/injection, schedule: Q01DX001 (ip), vehicle: carboxymethylcellulose (CMC).
The mark [11] stands for this setting: dose: 400.0 mg/kg/injection, schedule: Q01DX001 (ip), vehicle: saline.
[12] abbreviates: dose: 100.0 mg/kg/injection, schedule: Q01DX009 (ip), vehicle: saline with Tween-80.
[13] abbreviates: dose: 200.0 mg/kg/injection, schedule: Q01DX009 (ip), vehicle: saline with Tween-80.
[14] abbreviates: dose: 100.0 mg/kg/injection, schedule: Q04DX003 (ip), vehicle: saline with Tween-80.
The mark [15] stands for this setting: dose: 200.0 mg/kg/injection, schedule: Q04DX003 (ip), vehicle: saline with Tween-80.
[16] abbreviates: dose: 400.0 mg/kg/injection, schedule: Q04DX003 (ip), vehicle: saline with Tween-80.

“And” between values parts separate entries of the source, which are not always exact repeats. Equal values may be shown once. Toxic doses and inconclusive results are not listed.

On to `COc1ccc2c(CSc3nc(N)nc4nc[nH]c34)cc(=O)oc2c1`, for which the T/C (dose: 25.0 mg/kg/injection, schedule: Q04DX002 (ip), vehicle: Klucel (hydroxypropylcellulose) (HPC)) is 108 % of control; the T/C (dose: 50.0 mg/kg/injection, schedule: Q04DX002 (ip), vehicle: Klucel (hydroxypropylcellulose) (HPC)) is 112 % of control; the T/C under setting [1] is 120 % of control; the T/C under setting [2] is 123 % of control; the T/C under setting [3] is 115 % of control.
On to `CNC(=O)OCCOC(=O)c1ccc(OC(=O)NC)cc1`, for which the T/C runs as follows: (dose: 25.0 mg/kg/injection, schedule: Q01DX001 (ip), vehicle: carboxymethylcellulose (CMC)) 109 % of control; (dose: 25.0 mg/kg/injection, schedule: Q01DX001 (ip), vehicle: other) 96 % of control; (dose: 25.0 mg/kg/injection, schedule: Q01DX001 (ip), vehicle: saline) 95 % of control; (dose: 45.0 mg/kg/injection, schedule: Q01DX001 (ip), vehicle: saline) 91 % of control; under setting [4], 93 % of control; (dose: 50.0 mg/kg/injection, schedule: Q01DX001 (ip), vehicle: other) 100 % of control. For the same compound, the T/C is 96 % of control under setting [5]; 100 % of control (dose: 67.0 mg/kg/injection, schedule: Q01DX001 (ip), vehicle: saline); 103 % of control and 92 % of control under setting [6]; 94 % of control (dose: 100.0 mg/kg/injection, schedule: Q01DX001 (ip), vehicle: other); 95 % of control and 101 % of control and 202 % of control under setting [7]; 95 % of control (dose: 150.0 mg/kg/injection, schedule: Q01DX001 (ip), vehicle: saline). For the same compound, the T/C by setting is: under setting [8], 97 % of control and 101 % of control; (dose: 200.0 mg/kg/injection, schedule: Q01DX001 (ip), vehicle: other) 96 % of control; under setting [9], 88 % of control and 90 % of control; under setting [10], 97 % of control; under setting [11], 93 % of control and 90 % of control.
For `COc1cc(C=Nc2cccc(C(=O)O)c2)ccc1N(CCCl)CCCl`, under setting [4], the T/C is 117 % of control.
For the compound `C#CC1(O)CCCC(C)C1` (centres undefined), the T/C reads like this: under setting [12], 102 % of control; under setting [13], 97 % of control.
`O=C(O)CC(SC(c1ccccc1)(c1ccccc1)c1ccccc1)C(=O)O` (centres undefined): the T/C is 93 % of control (dose: 100.0 mg/kg/injection, schedule: Q01DX009 (ip), vehicle: Klucel (hydroxypropylcellulose) (HPC)); 98 % of control (dose: 100.0 mg/kg/injection, schedule: Q04DX003 (ip), vehicle: Klucel (hydroxypropylcellulose) (HPC)); 90 % of control (dose: 200.0 mg/kg/injection, schedule: Q01DX009 (ip), vehicle: Klucel (hydroxypropylcellulose) (HPC)); 102 % of control (dose: 200.0 mg/kg/injection, schedule: Q04DX003 (ip), vehicle: Klucel (hydroxypropylcellulose) (HPC)); 96 % of control (dose: 400.0 mg/kg/injection, schedule: Q04DX003 (ip), vehicle: Klucel (hydroxypropylcellulose) (HPC)).
Turning to `CCOc1ccccc1/C=N/NC(=O)C(O)(c1ccccc1)c1ccccc1`, the T/C is 101 % of control under setting [6], 101 % of control under setting [8] and 97 % of control under setting [10].
Turning to `COc1nc(N)c([N+](=O)[O-])c(OC)n1`, the T/C was 97 % of control (dose: 16.0 mg/kg/injection, schedule: Q01DX Z (ip), vehicle: methylcellulose (MC)); 90 % of control (dose: 31.0 mg/kg/injection, schedule: Q01DX Z (ip), vehicle: methylcellulose (MC)); 103 % of control (dose: 62.0 mg/kg/injection, schedule: Q01DX Z (ip), vehicle: methylcellulose (MC)).
As for `Cc1nc(N)[nH]c(=O)c1CCCNc1nc(Cl)nc(Cl)n1`, the T/C is, setting by setting: under setting [1], 91 % of control; under setting [2], 91 % of control; under setting [3], 88 % of control.
On to `O=C(Nc1ccc(S(=O)(=O)NC2CCCCC2)cc1)Oc1ccccc1C(=O)O`, for which the T/C under setting [7] is 100 % of control, the T/C under setting [9] was 91 % of control and the T/C under setting [11] was 100 % of control.
For `CCCCCCCCCCCCOC(N)=O`, the T/C (dose: 50.0 mg/kg/injection, schedule: Q01DX009 (ip), vehicle: saline with Tween-80) is 103 % of control; the T/C under setting [12] was 101 % of control; the T/C under setting [14] is 103 % of control; the T/C under setting [13] is 101 % of control; the T/C under setting [15] is 108 % of control; the T/C under setting [16] was 88 % of control.
On to `CCN(CC)S(=O)(=O)CC`, for which the T/C (dose: 100.0 mg/kg/injection, schedule: Q04DX002 (ip), vehicle: saline with Tween-80) was 99 % of control; the T/C (dose: 200.0 mg/kg/injection, schedule: Q04DX002 (ip), vehicle: saline with Tween-80) was 96 % of control; the T/C (dose: 400.0 mg/kg/injection, schedule: Q04DX002 (ip), vehicle: saline with Tween-80) was 92 % of control.
In the case of `CN=C(N)N`, the T/C runs as follows: under setting [14], 102 % of control; under setting [15], 101 % of control; under setting [16], 103 % of control.
Turning to `CN(C)CCCOC(=O)C1C2CC3OC(=O)C1C3C2` (centres undefined), the T/C by setting is: (dose: 100.0 mg/kg/injection, schedule: Q04DX003 (ip), vehicle: saline) 93 % of control; (dose: 200.0 mg/kg/injection, schedule: Q04DX003 (ip), vehicle: saline) 96 % of control; (dose: 400.0 mg/kg/injection, schedule: Q04DX003 (ip), vehicle: saline) 101 % of control.
As to `O=C(O)C1=CC2CC1C1CC(C(=O)O)CC21` (centres undefined), the T/C (dose: 100.0 mg/kg/injection, schedule: Q01DX001 (ip), vehicle: Klucel (hydroxypropylcellulose) (HPC)) is 105 % of control; the T/C (dose: 200.0 mg/kg/injection, schedule: Q01DX001 (ip), vehicle: Klucel (hydroxypropylcellulose) (HPC)) was 91 % of control; the T/C (dose: 400.0 mg/kg/injection, schedule: Q01DX001 (ip), vehicle: Klucel (hydroxypropylcellulose) (HPC)) is 103 % of control.
Regarding `FC(F)(F)c1ccc2c(c1)N(CCCN(CCCl)CCCl)c1ccccc1S2`, the T/C is 102 % of control (dose: 3.12 mg/kg/injection, schedule: Q01DX001 (ip), vehicle: saline with Tween-80); 102 % of control (dose: 3.12 mg/kg/injection, schedule: Q01DX009 (ip), vehicle: saline with Tween-80); 102 % of control (dose: 6.25 mg/kg/injection, schedule: Q01DX001 (ip), vehicle: saline with Tween-80); 98 % of control (dose: 6.25 mg/kg/injection, schedule: Q01DX009 (ip), vehicle: saline with Tween-80); 100 % of control (dose: 12.5 mg/kg/injection, schedule: Q01DX001 (ip), vehicle: saline with Tween-80); 100 % of control (dose: 12.5 mg/kg/injection, schedule: Q01DX009 (ip), vehicle: saline with Tween-80). The T/C runs as follows: (dose: 12.5 mg/kg/injection, schedule: Q04DX003 (ip), vehicle: saline with Tween-80) 102 % of control; (dose: 25.0 mg/kg/injection, schedule: Q04DX003 (ip), vehicle: saline with Tween-80) 113 % of control; (dose: 50.0 mg/kg/injection, schedule: Q04DX003 (ip), vehicle: saline with Tween-80) 98 % of control; under setting [14], 113 % of control.
Consider `Cc1c(C)c(C)c(Br)c(C)c1C`, for which the T/C is 108 % of control under setting [5], 108 % of control under setting [7], 108 % of control under setting [9] and 108 % of control under setting [11].

These data come from PubChem BioAssay AID248 (DTP/NCI, 2004).
